Patent US20070015723A1, “Antiviral oligonucleotides having a conserved G4 core sequence” (priority 1992, published 2007)
pEC50, pIC50: −log10 of the molar value. Values joined by “and” are separate entries in the source; they are usually repeats but may differ in a detail not shown here. Equal entries are not always repeated. Where two headings read alike, the source gives them in different places. Strand notation (5' to 3'): a small letter for the sugar, then the base; units joined by * are phosphorothioate-linked, units joined directly phosphodiester-linked; [ ] holds rarer units or linkages, { } end groups; capitals alone tell only the bases. {Fluor} = fluorescein moiety via fluorescein-labeled amidite; d = 2'-deoxy (DNA)

What was measured:
HSV-2 = assay: HSV ELISA assay, HSV-2; assay type: cell-based
HSV-2 strain E194 = assay type: cell-based
HSV1-DM2.1 = assay: microbe, parasite or virus in culture; assay type: cell-based, HSV-1
HSV1-F = assay: HSV ELISA assay, strain HSV1-F; assay type: cell-based, HSV-1
HSV1-PAAr = assay: microbe, parasite or virus in culture; assay type: cell-based, HSV-1
HSV1-McKrae = assay: HSV ELISA assay, strain HSV1-McKrae; assay type: cell-based, HSV-1
vaccinia virus = assay type: cell-based; conditions: Vacc
[1] = tested on: rhinovirus 2 (R-2), strain HGP; assay type: cell-based, human rhinovirus
[2] = tested on: Adenovirus, Type 5 (A-5), strain Adenoid 75; assay type: cell-based
[3] = tested on: respiratory syncytial virus (RSV) strain Long; assay type: cell-based
[4] = tested on: influenza strain A/NWS/33 (H1N1); assay type: cell-based, influenza virus
HSV-1 (KOS) [5] = assay: HSV-1 infection ELISA assay; assay type: cell-based
HIV-1IIIB [6] = assay: Acute HIV infection assay (XTT, CEM cells); conditions: inhibition of HIV
human cytomegalovirus = assay: Cytomegalovirus inhibition ELISA assay; assay type: cell-based; conditions: HCMV
[7] = target: T1, human type II phospholipase A2 (Homo sapiens, UniProt P14555); assay: Human type II phospholipase A2 enzyme assay (3H-oleic acid labelled E. coli substrate); assay type: biochemical; conditions: 1 μM
T1 sequence (P14555 21-144): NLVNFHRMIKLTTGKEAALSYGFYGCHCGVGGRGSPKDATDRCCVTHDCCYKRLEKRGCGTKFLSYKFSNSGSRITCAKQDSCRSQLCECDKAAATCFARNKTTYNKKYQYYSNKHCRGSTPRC

HIV-1IIIB [8] = tested on: HIV-1IIIB
HSV-1 (KOS) [9] = assay: HSV-1 virus yield assay; assay type: cell-based; conditions: for anti-HSV activity in virus yield assay: FIG. 2
[10] = 50% inhibition of HSV replication relative to control infected cells, Table 1
[11] = Table 5, two separate experiments

Nc1nc2c(ncn2COCCO)c(=O)[nH]1 [ACV, 9-(2-hydroxyethoxymethyl)guanine]
pEC50 (HSV-2; Human alphaherpesvirus 2): 5.70 | ED50 (HSV-2 strain E194): 97700 nM | pEC50 (HSV1-DM2.1; Human alphaherpesvirus 1): < 5.52 | pEC50 (HSV1-F; Human alphaherpesvirus 1): 6.15 | pEC50 (HSV1-PAAr; Human alphaherpesvirus 1): < 5.52 | pEC50 (HSV1-McKrae; Human alphaherpesvirus 1): 5.74

Nc1ncnc2c1ncn2[C@@H]1O[C@H](CO)[C@@H](O)[C@@H]1O [Ara-A, 9-(β-D-arabinofuranosyl)adenine]
ED50 (vaccinia virus): 15800 nM

NC(=O)c1ncn([C@@H]2O[C@H](CO)[C@@H](O)[C@H]2O)n1 [Ribavirin]
ED50 [1]: 229000 nM | ED50 [2]: 82000 nM | ED50 [3]: 49000 nM | ED50 [4]: 7780 nM

ISIS 1082: GCCGAGGTCCATGTCGTACGC, SEQ ID NO 134; negative control, complementary to HSV UL13 translation initiation codon, no runs of G (dG*dC*dC*dG*dA*dG*dG*dT*dC*dC*dA*dT*dG*dT*dC*dG*dT*dA*dC*dG*dC)
pEC50 (HSV-2): 5.70 | pEC50 (HSV-1 (KOS) [5]; HSV-1 (KOS strain), Table 9, some in duplicate): 5.60 and 5.74 | pEC50 (HSV-1 (KOS) [5]; HSV-1 (KOS), Table 10): 5.68 | pEC50 (HSV1-DM2.1; HSV1-DM2.1 (resistant to ACV), read-out: EC50): < 5.52 | pEC50 (HSV1-F): < 5.52 | pEC50 (HSV1-PAAr; HSV1-PAAr (resistant to ACV), read-out: EC50): < 5.52 | pEC50 (HSV1-McKrae): < 5.52

ISIS 4560: GGGG C GGGG C GGGG C GGGG C G, P = S, SEQ ID NO 42 (dG*dG*dG*dG*dC*dG*dG*dG*dG*dC*dG*dG*dG*dG*dC*dG*dG*dG*dG*dC*dG)
pIC50 (HIV-1IIIB [6]): 6.85 | pIC50 (human cytomegalovirus): 6.82 | pEC50 (HSV-1 (KOS) [5]; [10]): 6.74 | % Inhibition (1 μM) ([7]; Table 4): 100%

ISIS 4672: GGG T GGG T ATA G, P = S, SEQ ID NO 50 (GGGTGGGTATAG; all phosphorothioate, sugars by position not given here)
pEC50 (HSV-1 (KOS) [5]; [10]): 6.70 | % Inhibition (1 μM) [7, 11]: 73.9% and 94.6%

ISIS 4717: GG GGT TGG GG, P = S, SEQ ID NO 26 (GGGGTTGGGG; all phosphorothioate, sugars by position not given here)
pIC50 (HIV-1IIIB [6]): 6.39 | pIC50 (human cytomegalovirus): 6.00 | pEC50 (HSV-1 (KOS) [5]; [10]): 6.22 | % Inhibition (1 μM) [7, 11]: 83.1%

ISIS 4873: CAT GAC CGG GGC, P = S, SEQ ID NO 4 (CATGACCGGGGC; all phosphorothioate, sugars by position and methylation of C not given here)
pIC50 (HIV-1IIIB [6]): 6.00 | pEC50 (HSV-1 (KOS) [5]; [10]): 5.85 and 6.00

ISIS 4897: CAC GGG GTC GCC GAT, P = S, SEQ ID NO 31 (CACGGGGTCGCCGAT; all phosphorothioate, sugars by position and methylation of C not given here)
pIC50 (HIV-1IIIB [6]): 6.37 | pEC50 (HSV-1 (KOS) [5]; [10]): 6.89

ISIS 5295: GTT GGA GAC CGG GIT TGG GG, Inosine #14, SEQ ID NO 138 (GTT GGA GAC CGG GITTGG GG; inosine at 14, as printed in the source, key not given here)
pEC50 (HSV-1 (KOS) [5]; Table 12, inosine-substituted): < 5.52

ISIS 5296: GTT GGA GAC CGG GGT TGG IG, Inosine #19, SEQ ID NO 139 (GTT GGA GAC CGG GGTTGG IG; inosine at 19, as printed in the source, key not given here)
pEC50 (HSV-1 (KOS) [5]; Table 12, inosine-substituted): 6.10

ISIS 5302: CAC GAA AGG CAT GAC, P = S, SEQ ID NO 7 (CACGAAAGGCATGAC; all phosphorothioate, sugars by position and methylation of C not given here)
pEC50 (HSV-1 (KOS) [5]; [10]): < 5.52

ISIS 5309: GTT GGA GAC CGI GGT TGG GG, Inosine #12, SEQ ID NO 140 (GTT GGA GAC CGI GGTTGG GG; inosine at 12, as printed in the source, key not given here)
pEC50 (HSV-1 (KOS) [5]; Table 12, inosine-substituted): < 5.52

ISIS 5310: GTT GGA GAC CGG GGT TGG GI, Inosine #20, SEQ ID NO 141 (GTT GGA GAC CGG GGTTGG GI; inosine at 20, as printed in the source, key not given here)
pEC50 (HSV-1 (KOS) [5]; Table 12, inosine-substituted): 6.40

ISIS 5339: sequence of 1082 (SEQ ID NO 134) with a fluorescein moiety conjugated to the 5′ end (GCCGAGGTCCATGTCGTACGC; DNA, 5' {Fluor}, backbone not given here)
pEC50 (HSV-1 (KOS) [5]; Table 13, fluorescein-conjugated): 6.19

ISIS 5356: CGG GGT TGG GG, P = S, SEQ ID NO 25 (CGGGGTTGGGG; all phosphorothioate, sugars by position and methylation of C not given here)
pEC50 (HSV-1 (KOS) [5]; [10]): 6.15

ISIS 5365: GA GAC CGG GGT TGG GG, P = S, SEQ ID NO 23 (GAGACCGGGGTTGGGG; all phosphorothioate, sugars by position and methylation of C not given here)
pEC50 (HSV-1 (KOS) [5]; [10]): 6.33

ISIS 5366: TTGGGGTTGGGGTTGGGGTTG GGGG, P = S, SEQ ID NO 33 (TTGGGGTTGGGGTTGGGGTTGGGGG; all phosphorothioate, sugars by position not given here)
pIC50 (HIV-1IIIB [6]): 7.10 and 7.00 | pIC50 (human cytomegalovirus): 7.00 | pEC50 (HSV-1 (KOS) [5]; [10]): 6.80 | TC50 (CEM cell line): 22000 nM | TI (TC50/IC50) (HIV-1IIIB [8]): 220

ISIS 5590: GGGG TT GGGG, P = O, SEQ ID NO 46 (GGGGTTGGGG; all phosphodiester, sugars by position not given here)
pIC50 (HIV-1IIIB [6]): < 4.60 | pEC50 (HSV-1 (KOS) [5]; [10]): < 5.52 | TC50 (CEM cell line): 20000 nM

ISIS 5651: TT GGGG TT GGGG TT GGGG TT GGGG, P = S, SEQ ID NO 35 (TTGGGGTTGGGGTTGGGGTTGGGG; all phosphorothioate, sugars by position not given here)
pIC50 (HIV-1IIIB [6]): 7.00 and 6.74 | pEC50 (HSV-1 (KOS) [5]; [10]): 6.77 | TI (TC50/IC50) (HIV-1IIIB [8]): 175 | anti-HSV activity in virus yield assay (HSV-1 (KOS) [9]): dose-dependent anti-HSV activity | antiviral activity in virus yield assay (HSV-1 (KOS) [9]; dose of 3 mM, FIG. 1): greater antiviral activity than did Acyclovir

ISIS 5653: TT GGGG TT GGGG TT GGGG, P = S, SEQ ID NO 38 (TTGGGGTTGGGGTTGGGG; all phosphorothioate, sugars by position not given here)
pIC50 (HIV-1IIIB [6]): 6.92 | pEC50 (HSV-1 (KOS) [5]; [10]): 6.70 | TC50 (CEM cell line): 27000 nM | anti-HSV activity in virus yield assay (HSV-1 (KOS) [9]): dose-dependent anti-HSV activity

ISIS 5667: TT GGGG TT GGGG TT, P = O, SEQ ID NO 56 (TTGGGGTTGGGGTT; all phosphodiester, sugars by position not given here)
pIC50 (HIV-1IIIB [6]): < 4.66 | TC50 (CEM cell line): 5600 nM

ISIS 5668: TT GGGG TT GGGG, P = O, SEQ ID NO 57 (TTGGGGTTGGGG; all phosphodiester, sugars by position not given here)
pIC50 (HIV-1IIIB [6]): < 4.68 | TC50 (CEM cell line): 5200 nM

ISIS 5674: TT GGGG TT GGGG, P = S, SEQ ID NO 41 (TTGGGGTTGGGG; all phosphorothioate, sugars by position not given here)
pIC50 (HIV-1IIIB [6]): 6.37 | pEC50 (HSV-1 (KOS) [5]; [10]): 5.82 | TC50 (CEM cell line): >200000 nM

ISIS 5675: TT GGGG TT GGGG TT, P = S, SEQ ID NO 40 (TTGGGGTTGGGGTT; all phosphorothioate, sugars by position not given here)
pIC50 (HIV-1IIIB [6]): 6.42 | pEC50 (HSV-1 (KOS) [5]; [10]): 6.38 | TC50 (CEM cell line): 14000 nM | TI (TC50/IC50) (HIV-1IIIB [8]): 36

ISIS 5676: GGGG TT GGGG TT GGGG, P = S, SEQ ID NO 39 (GGGGTTGGGGTTGGGG; all phosphorothioate, sugars by position not given here)
pIC50 (HIV-1IIIB [6]): 6.74 and 6.55 | pEC50 (HSV-1 (KOS) [5]; [10]): 6.64 | TI (TC50/IC50) (HIV-1IIIB [8]): 114 | anti-HSV activity in virus yield assay (HSV-1 (KOS) [9]): dose-dependent anti-HSV activity

ISIS 5677: GGGG TT GGGG TT GGGG TT GGGG, P = S, SEQ ID NO 36 (GGGGTTGGGGTTGGGGTTGGGG; all phosphorothioate, sugars by position not given here)
pIC50 (HIV-1IIIB [6]): 7.00 and 6.72 | pEC50 (HSV-1 (KOS) [5]; [10]): 6.70 | TI (TC50/IC50) (HIV-1IIIB [8]): 146
